Measurements from the NIST ThermoML archive (doi:10.1016/j.fluid.2014.12.040).
Numbers after ± are expanded uncertainties.

How the values were obtained:
[1] = for surface tension liquid-gas: Wilhelmy-plate method; for mass density: 100 kPa, Liquid, Vibrating tube method
[2] = xn = mol fraction of the nth substance listed; conditions: for surface tension liquid-gas: Wilhelmy-plate method; for mass density: 100 kPa, Liquid, Vibrating tube method

CC(C)O [propan-2-ol]
[1]
Conditions | mass density [kg/m3] | surface tension liquid-gas [mN/m]
298.15 K | 781.18 ± 0.12 | 20.85 ± 0.05
308.15 K | 772.32 ± 0.12 | 20.1 ± 0.05
318.15 K | 763.61 ± 0.13 | 19.4 ± 0.05
328.15 K | 754.84 ± 0.13 | 18.75 ± 0.05

CC(O)CO (centres undefined) [1,2-propanediol]
[1]
Conditions | mass density [kg/m3] | surface tension liquid-gas [mN/m]
298.15 K | 1032.69 ± 0.05 | 35.74 ± 0.2
308.15 K | 1025.21 ± 0.05 | 35.35 ± 0.2
318.15 K | 1017.51 ± 0.04 | 34.96 ± 0.2
328.15 K | 1009.78 ± 0.04 | 34.6 ± 0.2

CC(C)O [propan-2-ol] + CC(O)CO
[2], x1 = 1
Conditions | mass density [kg/m3] | surface tension liquid-gas [mN/m]
298.15 K | 781.18 ± 0.12 | 20.85 ± 0.2
308.15 K | 772.32 ± 0.12 | 20.1 ± 0.2
318.15 K | 763.61 ± 0.13 | 19.4 ± 0.2
328.15 K | 754.84 ± 0.13 | 18.75 ± 0.2

O [water]
[1]
Conditions | mass density [kg/m3] | surface tension liquid-gas [mN/m]
298.15 K | – | 72.03 ± 0.2
308.15 K | – | 70.3 ± 0.2
318.15 K | – | 68.7 ± 0.2
328.15 K | 985.66 ± 0.04 | 66.9 ± 0.2

O [water] + CC(O)CO
[2], x2 = 0
Conditions | mass density [kg/m3] | surface tension liquid-gas [mN/m]
298.15 K | – | 72.03 ± 0.2
308.15 K | – | 70.3 ± 0.2
318.15 K | – | 68.7 ± 0.2
328.15 K | 985.66 ± 0.04 | 66.9 ± 0.2
